Results from ChEMBL document CHEMBL1201862, “PubChem BioAssay data set” (2004).
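Five compound concentrations were applied to cells in 96-well plates for 48 hours; endpoints were derived by simple linear interpolation of the resulting dose-response curve. GI50 marks 50% less growth.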 Activity calls are given as the source filed them. Rule as the data show it: active = GI50 up to about 1.1 µM and inactive = higher.

How the values were obtained:
Assay in all cases: NCI-60 cell line screen, 48 h
COLO 205 = tested on: COLO 205
SK-MEL-28 = tested on: SK-MEL-28
MCF7 = tested on: MCF7
SW-620 = tested on: SW-620
SF-295 = tested on: SF-295
MOLT-4 = tested on: MOLT-4
NCI-H23 = tested on: NCI-H23
SNB-19 = tested on: SNB-19
NCI-H522 = tested on: NCI-H522
LOX IMVI = tested on: LOX IMVI
SNB-75 = tested on: SNB-75
HOP-62 = tested on: HOP-62
T47D = tested on: T47D
HL-60 = tested on: HL-60
BT-549 = tested on: BT-549
Malme-3M = tested on: Malme-3M
KM12 = tested on: KM12
M14 = tested on: M14
MDA-MB-231 = tested on: MDA-MB-231
HOP-92 = tested on: HOP-92

Measured: GI50

C/C(CC/C(C)=N/O)=N\O
inactive: COLO 205 > 100 µM | SK-MEL-28 > 100 µM | MCF7 > 100 µM | SW-620 > 100 µM | SF-295 > 100 µM | MOLT-4 > 100 µM | NCI-H23 > 100 µM | SNB-19 > 100 µM | NCI-H522 > 100 µM | LOX IMVI > 100 µM | SNB-75 > 100 µM | HOP-62 > 100 µM | T47D > 100 µM | HL-60 > 100 µM | BT-549 > 100 µM | Malme-3M > 100 µM | KM12 > 100 µM | M14 > 100 µM | MDA-MB-231 > 100 µM

O=S(=O)([N-]c1nc2ccccc2nc1-[n+]1ccccc1)c1ccccc1
inactive: COLO 205 > 100 µM | HOP-92 > 100 µM | MCF7 > 100 µM | SF-295 > 100 µM | MOLT-4 23.1 µM | NCI-H23 67.8 µM | SNB-19 > 100 µM | NCI-H522 > 100 µM | LOX IMVI > 100 µM | SNB-75 > 100 µM | HOP-62 46.1 µM | T47D 81.8 µM | HL-60 22.1 µM | BT-549 20.8 µM | Malme-3M > 100 µM | KM12 > 100 µM | M14 > 100 µM | MDA-MB-231 28.9 µM

COc1ccc(OC)c2c(Nc3ccc(S(=O)(=O)O)c4cc(S(=O)(=O)O)cc(S(=O)(=O)O)c34)cc(C)nc12
inactive: COLO 205 > 100 µM | SK-MEL-28 > 100 µM | MCF7 > 100 µM | SW-620 > 100 µM | SF-295 > 100 µM | MOLT-4 > 100 µM | NCI-H23 > 100 µM | NCI-H522 > 100 µM | LOX IMVI > 100 µM | SNB-75 > 100 µM | HOP-62 > 100 µM | T47D > 100 µM | HL-60 > 100 µM | BT-549 > 100 µM | Malme-3M > 100 µM | KM12 > 100 µM | M14 > 100 µM | MDA-MB-231 > 100 µM

CN(C)Cc1cc(Cl)c(O)c(CN(C)C)c1
inactive: COLO 205 > 100 µM | HOP-92 > 100 µM | SK-MEL-28 > 100 µM | MCF7 > 100 µM | SW-620 > 100 µM | SF-295 > 100 µM | NCI-H23 > 100 µM | SNB-19 > 100 µM | NCI-H522 > 100 µM | LOX IMVI > 100 µM | SNB-75 > 100 µM | HOP-62 > 100 µM | T47D > 100 µM | HL-60 > 100 µM | BT-549 > 100 µM | Malme-3M > 100 µM | KM12 > 100 µM | M14 > 100 µM | MDA-MB-231 > 100 µM

O=c1ccn(CC2(CO)CCC2)c(=O)[nH]1
inactive: COLO 205 > 100 µM | HOP-92 > 100 µM | SK-MEL-28 > 100 µM | MCF7 > 100 µM | SW-620 > 100 µM | SF-295 > 100 µM | MOLT-4 > 100 µM | NCI-H23 > 100 µM | NCI-H522 > 100 µM | LOX IMVI > 100 µM | SNB-75 > 100 µM | HOP-62 > 100 µM | T47D > 100 µM | HL-60 > 100 µM | BT-549 > 100 µM | Malme-3M > 100 µM | KM12 > 100 µM | MDA-MB-231 > 100 µM

CCN(CC)CCCNc1c2c(Cl)cc(Cl)cc2nc2nc(O)nc(C)c12
inactive: COLO 205 45.3 µM | HOP-92 57.3 µM | SK-MEL-28 30.6 µM | MCF7 23.3 µM | SW-620 17.8 µM | SF-295 59.8 µM | MOLT-4 20.7 µM | NCI-H23 55.8 µM | SNB-19 19.5 µM | NCI-H522 21.6 µM | LOX IMVI 23.1 µM | HOP-62 23.2 µM | T47D > 100 µM | HL-60 57.4 µM | BT-549 84.5 µM | Malme-3M 41.6 µM | KM12 15.7 µM | M14 26.4 µM | MDA-MB-231 18.5 µM

CC(C)(O)C1CC[C@]2(C)CC[C@]3(C)[C@H](CC[C@@H]4[C@@]5(C)CC[C@H](O)C(C)(C)[C@@H]5CC[C@]43C)[C@@H]12 (stereo partly drawn)
inactive: COLO 205 29.7 µM | HOP-92 14.5 µM | SK-MEL-28 29.2 µM | MCF7 34.6 µM | SF-295 25.4 µM | MOLT-4 73.1 µM | NCI-H23 35.2 µM | SNB-19 68.7 µM | NCI-H522 29.1 µM | SNB-75 21.6 µM | HOP-62 25.8 µM | T47D 23.1 µM | HL-60 > 100 µM | BT-549 29.2 µM | Malme-3M 28.6 µM | KM12 34.4 µM | M14 36.3 µM | MDA-MB-231 > 100 µM

CC1CC(=O)Nc2cc(Cl)ccc2N1C(=O)C1CC1 (stereo not drawn)
inactive: COLO 205 > 100 µM | HOP-92 > 100 µM | SK-MEL-28 > 100 µM | MCF7 > 100 µM | SW-620 > 100 µM | SF-295 > 100 µM | MOLT-4 > 100 µM | NCI-H23 > 100 µM | SNB-19 > 100 µM | NCI-H522 > 100 µM | LOX IMVI > 100 µM | HOP-62 > 100 µM | T47D > 100 µM | HL-60 > 100 µM | BT-549 > 100 µM | Malme-3M > 100 µM | KM12 > 100 µM | M14 > 100 µM | MDA-MB-231 > 100 µM

COc1cc2ccc1OCc1cccc(n1)COc1ccc(cc1OC)/C=N\c1ccc(cc1)/N=C\2
inactive: COLO 205 > 100 µM | HOP-92 > 100 µM | MCF7 > 100 µM | SW-620 > 100 µM | SF-295 > 100 µM | MOLT-4 > 100 µM | NCI-H23 > 100 µM | SNB-19 > 100 µM | NCI-H522 > 100 µM | LOX IMVI > 100 µM | SNB-75 > 100 µM | HOP-62 > 100 µM | T47D > 100 µM | HL-60 > 100 µM | BT-549 > 100 µM | Malme-3M > 100 µM | KM12 > 100 µM | M14 > 100 µM | MDA-MB-231 > 100 µM

CN(C)CCCNc1c2ccccc2[n+]([O-])c2ccccc12
inactive: COLO 205 13.3 µM | HOP-92 36.5 µM | SK-MEL-28 > 100 µM | MCF7 31.6 µM | SW-620 39.9 µM | SF-295 54 µM | MOLT-4 42.4 µM | NCI-H23 45.7 µM | NCI-H522 28.2 µM | LOX IMVI 31.2 µM | SNB-75 51.4 µM | HOP-62 43.5 µM | T47D 78 µM | HL-60 51.8 µM | BT-549 19.1 µM | Malme-3M 76.7 µM | KM12 39.3 µM | M14 > 100 µM | MDA-MB-231 63.4 µM

Cc1ccc2nc3c(=O)[nH]c(=O)nc-3n(C)c2c1C
inactive: COLO 205 > 100 µM | SK-MEL-28 > 100 µM | MCF7 > 100 µM | SW-620 > 100 µM | SF-295 > 100 µM | MOLT-4 > 100 µM | NCI-H23 > 100 µM | SNB-19 > 100 µM | NCI-H522 > 100 µM | LOX IMVI > 100 µM | SNB-75 > 100 µM | HOP-62 > 100 µM | T47D > 100 µM | HL-60 > 100 µM | BT-549 > 100 µM | Malme-3M > 100 µM | KM12 > 100 µM | M14 > 100 µM | MDA-MB-231 > 100 µM

C/C(=N\O)c1ccc2cc(Br)c3ccccc3c2c1
inactive: HOP-92 21 µM | SK-MEL-28 19.3 µM | MCF7 17.2 µM | SW-620 23.1 µM | SF-295 15.6 µM | NCI-H23 20 µM | SNB-19 33.4 µM | NCI-H522 15.1 µM | LOX IMVI 15.6 µM | SNB-75 28.1 µM | HOP-62 20.2 µM | T47D 22.5 µM | HL-60 20.7 µM | BT-549 27.5 µM | Malme-3M 19.8 µM | KM12 15.6 µM | M14 18.2 µM | MDA-MB-231 15.3 µM

COC(=O)c1ccccc1/C=C1\Cc2ccc3c(c2C1=O)CCCC3
inactive: COLO 205 > 100 µM | SK-MEL-28 > 100 µM | MCF7 > 100 µM | SW-620 > 100 µM | SF-295 > 100 µM | MOLT-4 > 100 µM | NCI-H23 > 100 µM | SNB-19 > 100 µM | NCI-H522 > 100 µM | LOX IMVI > 100 µM | SNB-75 > 100 µM | HOP-62 > 100 µM | T47D > 100 µM | HL-60 > 10 µM | BT-549 > 100 µM | Malme-3M > 100 µM | KM12 > 100 µM | M14 > 100 µM | MDA-MB-231 > 100 µM

CSc1c(C#N)c(O)n(-c2ccc(C)cc2)c(=O)c1C(C)=O
inactive: COLO 205 > 100 µM | SK-MEL-28 > 100 µM | MCF7 > 100 µM | SW-620 > 100 µM | MOLT-4 > 100 µM | NCI-H23 > 100 µM | SNB-19 > 100 µM | NCI-H522 57.5 µM | LOX IMVI > 100 µM | SNB-75 > 100 µM | T47D > 100 µM | HL-60 > 100 µM | BT-549 > 100 µM | Malme-3M > 100 µM | KM12 > 100 µM | M14 94.6 µM | MDA-MB-231 > 100 µM

O=C1c2ccccc2C(=O)N1CC1(C(=O)O)NCCS1(=O)=O (stereo not drawn)
inactive: COLO 205 > 100 µM | HOP-92 > 100 µM | SK-MEL-28 > 100 µM | MCF7 > 100 µM | SW-620 > 100 µM | SF-295 > 100 µM | MOLT-4 > 100 µM | NCI-H23 > 100 µM | SNB-19 > 100 µM | NCI-H522 > 100 µM | LOX IMVI > 100 µM | HOP-62 > 100 µM | T47D > 100 µM | HL-60 > 100 µM | BT-549 > 100 µM | Malme-3M > 100 µM | KM12 > 100 µM | M14 > 100 µM | MDA-MB-231 > 100 µM
